Measurements reported in paper PMC11352273, “The Proapoptotic Action of Pyrrolidinedione–Thiazolidinone Hybrids towards Human Breast Carcinoma Cells Does Not Depend on Their Genotype” (Cancers, 2024).
Read-outs that look alike come from different tables or passages of the source.

How the values were obtained:
MCF-10A cells [1] = assay: MTT assay; format: cell-based, human
Protocol: (§1) The MCF-7 and MDA-MB-231 cells were cultured in the DMEM medium containing 10% of the FBS, HCC1954, T-47D, and 4T1 cells in the RPMI-1640 medium with the addition of 10% of the FBS, and MCF-10A cells in MEGM Mammary Epithelial Cell Growth Medium BulletKit supplemented with penicillin/streptomycin cocktail and 5% of horse serum. The cells were cultured in a […] atmosphere at 5% CO2 and 37 °C. After trypsinization, cells were counted using a Scepter 3.0 handheld automated cell counter (Millipore, Burlington, MA, USA).
(§2) The MTT test was used to assess the metabolic activity of cells treated with the investigated substances following the Sigma-Aldrich manufacturer’s instructions. Briefly, compounds were added in 100 µL of the cultural medium, and cells were incubated for the next 24 and 48 h. Doxorubicin was used as a reference drug. The DMSO was added to dissolve the crystals of formazan. We used the ThermoScientific Evolution 201 UV–VIS spectrophotometer (ThermoFisher Scientific, Waltham, MA, USA) to measure the absorbance of formazan at 570 nm. The initial value of the relative number of cells in control (under 0.1% of the DMSO) was accepted as 100%. We used GraphPad Prism Version 9 to calculate the half-maximal inhibition concentration (IC50) of the studied compounds (the concentration of the drug that reduced cell viability by 50%).

MCF-7 cells [2] = assay: Clonogenic assay; format: cell-based, human; conditions: for IC50: Homo sapiens, MCF7, MCF-7, 72 h exposure, 14 days culture, read-out: IC50 (M ± SD) in clonogenic assay; for formation of colonies: MCF-7, compound at 5 µM
Protocol: (§3) The clonogenic assay was carried out utilizing the previously published methodology. The MCF-7, MDA-MB-231, HCC1954, and MCF-10A cells (500 cells/2 mL) were seeded in a 12-well plate overnight. Afterward, studied derivatives or doxorubicin (1, 2.5, 5, 10, and 50 µM) were added to cells. The media was changed after 72 h to a compound-free one, and the cells were cultured for the following 14 days. Then, the cells were washed, fixed, and stained with 0.1% crystal violet. After washing, the plates were dried at room temperature. The colonies were recorded by ImageJ software (Version 1.30). The value of colonies in control (non-treated cells) was accepted as 100%. The effect of compounds on the colony-forming ability of cells was expressed as the percentage of colonies compared to the control.

HCC1954 cells [3] = assay: Clonogenic assay; format: cell-based, human; conditions: Homo sapiens; HCC1954; 72 h exposure, 14 days culture; read-out: IC50 (M ± SD) in clonogenic assay
Protocol: as §3

MDA-MB-231 cells [4] = assay: Clonogenic assay; format: cell-based, human; conditions: for IC50: Homo sapiens, MDA-MB-231, 72 h exposure, 14 days culture, read-out: IC50 (M ± SD) in clonogenic assay
Protocol: as §3

[5] = system: MDA-MB-231, 4T1, MCF-7, T-47D, and HCC1954 cells; assay: MTT assay, summary over breast carcinoma cell lines; format: cell-based; conditions: for IC50: Breast carcinoma cell, 24 and 48 h, all five cancer cell lines and all three hybrids together, read-out: IC50, range over breast carcinoma cell lines; for selectivity index (SI = IC50 for MCF-10A/IC50 for human breast tumor cells): range over cell lines and time points
Protocol: as §1, §2

[6] = system: mitogen-activated lymphocytes collected from the peripheral blood of a healthy donor; parameters: method as in PMID 37579525; conditions: cited from earlier work
4T1 cells = assay: MTT assay; format: cell-based, murine; conditions: Mus musculus, read-out: IC50, µM (M ± SD)
Protocol: as §1, §2

[7] = system: normal human keratinocytes (HaCaT); parameters: method as in PMID 37579525; conditions: cited from earlier work
T-47D cells = assay: MTT assay; format: cell-based; conditions: Homo sapiens, T47D, read-out: IC50, µM (M ± SD)
Protocol: as §1, §2

MCF-7 cells [8] = assay: MTT assay; format: cell-based; conditions: Homo sapiens, read-out: IC50, µM (M ± SD)
Protocol: as §1, §2

HCC1954 cells [9] = assay: MTT assay; format: cell-based; conditions: Homo sapiens, read-out: IC50, µM (M ± SD)
Protocol: as §1, §2

MDA-MB-231 cells [10] = assay: MTT assay; format: cell-based; conditions: Homo sapiens, read-out: IC50, µM (M ± SD)
Protocol: as §1, §2

MCF-10A cells [11] = assay: Clonogenic assay; format: cell-based; conditions: Homo sapiens; for IC50: 72 h exposure, 14 days culture, read-out: IC50 (M ± SD) in clonogenic assay; for inhibition at 50 µM: compound at 50 µM, read-out: inhibition of the formation of colonies
Protocol: as §3

[12] = Homo sapiens, MCF-10A, 24 h, MCF-10A, 24 h, read-out: IC50, µM (M ± SD)
[13] = Homo sapiens, MCF-10A, 48 h, MCF-10A, 48 h, read-out: IC50, µM (M ± SD)
[14] = Homo sapiens, MCF-10A, time point not specified (24 and 48 h), read-out: IC50 towards MCF-10A cells
[15] = time point not specified (24 and 48 h), read-out: IC50 towards MCF-10A cells

IC50 (MCF-7 cells [2]) [µM] | IC50 (HCC1954 cells [3]) [µM] | IC50 (MDA-MB-231 cells [4]) [µM] | IC50 [5] [µM] | IC50 (4T1 cells; 4T1, 24 h) [µM] | IC50 (4T1 cells; 4T1, 48 h) [µM] | IC50 (T-47D cells; 24 h) [µM] | IC50 (T-47D cells; 48 h) [µM] | IC50 (MCF-7 cells [8]; MCF7, MCF-7, 24 h) [µM] | IC50 (MCF-7 cells [8]; MCF7, MCF-7, 48 h) [µM] | IC50 (HCC1954 cells [9]; HCC1954, 24 h) [µM] | IC50 (HCC1954 cells [9]; HCC1954, 48 h) [µM] | IC50 (MDA-MB-231 cells [10]; MDA-MB-231, 24 h) [µM] | IC50 (MDA-MB-231 cells [10]; MDA-MB-231, 48 h) [µM] | Compound | IC50 (MCF-10A cells [1]; [12]) [µM] | IC50 (MCF-10A cells [1]; [13]) [µM] | IC50 (MCF-10A cells [1]; [14]) [µM] | IC50 (MCF-10A cells [1]; [15]) [µM] | formation of colonies (MCF-7 cells [2]) | selectivity index (SI = IC50 for MCF-10A/IC50 for human breast tumor cells) [5] | also measured
1.33 ± 0.1 | 3.05 ± 0.03 | 0.67 ± 0.08 | 1.37 to 21.9 | 2.2 ± 0.19 | 2.22 ± 0.25 | 4.48 ± 0.51 | 2.66 ± 0.21 | 6.74 ± 0.64 | 3.54 ± 0.14 | 4.53 ± 0.18 | 5.01 ± 0.23 | 21.9 ± 9.92 | 3.72 ± 0.22 | O=C1CC(N2C(=O)C(=CC(Cl)=Cc3ccc([N+](=O)[O-])cc3)SC2=S)C(=O)N1c1ccc(Cl)cc1 (stereo not drawn) [Les-6294, 1-(4-chlorophenyl)-3-[5-[2-chloro-3-(4-nitrophenyl)prop-2-enylidene]-4-oxo-2-thioxothiazolidine-3-yl]pyrrolidine-2,5-dione] | > 100 | > 100 | > 100 | > 64.6 | totally inhibited | 4.57–37.59 | formation of colonies (MDA-MB-231 cells [4]; MDA-MB-231, compound at 5 µM): did not observe the growth; IC50 [6]: 29 to 67 µM; IC50 [7]: > 73.6 µM; IC50 (MCF-10A cells [11]): > 50 µM; inhibition at 50 µM (MCF-10A cells [11]): 37.1%
1.57 ± 0.12 | 1.54 ± 0.02 | 1.19 ± 0.03 | 1.37 to 21.9 | 2.25 ± 0.34 | 1.94 ± 0.15 | 4.08 ± 0.56 | 1.97 ± 0.58 | 3.26 ± 0.4 | 2.18 ± 0.19 | 9.91 ± 0.17 | 6.4 ± 0.25 | 6.09 ± 0.33 | 2.01 ± 0.12 | O=C1CC(N2C(=O)C(=CC(Cl)=Cc3ccc([N+](=O)[O-])cc3)SC2=S)C(=O)N1c1ccc(Br)cc1 (stereo not drawn) [Les-6328, 1-(4-bromophenyl)-3-[5-[2-chloro-3-(4-nitrophenyl)prop-2-enylidene]-4-oxo-2-thioxothiazolidine-3-yl]pyrrolidine-2,5-dione] | > 100 | > 100 | > 100 | > 64.6 | totally inhibited | 10.09–50.76 | formation of colonies (MDA-MB-231 cells [4]; MDA-MB-231, compound at 2.5 µM): did not observe the growth; IC50 (MCF-10A cells [11]): > 50 µM; inhibition at 50 µM (MCF-10A cells [11]): 25.9%
